≈ marks a conversion by molar mass, not a printed value. Counter-ions that a name gives are not always drawn. Like-named read-outs stand apart in the source and are kept apart here.
How the values were obtained:
S.aureus (Sa) = experiment: Broth microdilution MIC against S.aureus (Sa); format: cell-based; details: Staphylococcus aureus
Protocol: (§1) A certified BSL-2 laboratory was used for testing. Compounds were evaluated using the broth microdilution minimum inhibitory concentration (MIC) and minimum bactericidal concentration (MBC) assays defined by Clinical and Laboratory Standards Institute (CLSI) in the M26-A guideline against S.aureus (Sa), E.coli (Ec), K.pneumoniae (Kp), A.baumannii (Ab), E.faecalis (Ef) and P.aeruginosa (Pa).
(§2) MICs were determined using the Clinical Laboratory and Standards Institute (CLSI) Broth Microdilution Method with slight modification. Clinical and Laboratory Standards Institute (2012). “Methods for dilution antimicrobial susceptibility tests for bacteria that grow aerobically; approved standard, 9th ed. M07-A9. Clinical and Laboratory Standards Institute, Wayne, PA.” Serial two-fold dilutions of compounds are prepared in sterile clear roundbottom 96-well plates.
(§3) To prepare microdilution trays, two-fold dilutions of antimicrobial agent are prepared in growth medium: Cation-Adjusted Mueller-Hinton Broth (CAMHB), or CAMHB supplemented with sodium bicarbonate (6.25 or 25 mM final concentration prepared from a 1.0 M stock solution) or CAMHB supplemented with heat inactivated human serum (Fisher Cat. # BP2657100) 0-50% by adding 200 µL of the highest concentration to be tested (64 µg/mL, for example) in row A, mixing and transferring 100 µL from row A to 100 µL growth medium in row B, then repeating the mixing and transferring through row H of the 96-well plate, discarding the excess 100 µL remaining. This slight modification to the CLSI protocol enables evaluation of MICs for 3 compounds per plate in triplicate, albeit with only 8 compound dilutions (CLSI protocol enables 2 compounds in triplicate with 10 dilutions). Bacterial suspensions are added to a final concentration of 5 × 10^4 CFU/well by adding 5 µL of a 1:10 dilution of a 0.5 McFarland suspension (1 × 10^8 CFU/mL) for each bacterium evaluated. Bacterial suspensions were prepared using the growth method described by CLSI. Well-isolated colonies (3-5 from an agar plate) were selected using a sterile loop and used to inoculate a tube containing 4 mL of CAMHB. The cultures are incubated at 35 ± 2° C. until it achieves or exceeds the turbidity of the 0.5 McFarland standard, determined by measuring A600nm (usually two to six hours). When growth exceeds a 0.5 McFarland standard, the turbidity is adjusted with broth to be equivalent to a 0.5 McFarland standard.

E.coli (Ec) = experiment: Broth microdilution MIC against E.coli (Ec); format: cell-based; details: Escherichia coli
Protocol: as §1, §2, §3

P.aeruginosa (Pa) = experiment: Broth microdilution MIC against P.aeruginosa (Pa); format: cell-based; details: Pseudomonas aeruginosa
Protocol: as §1, §2, §3

A.baumannii (Ab) = experiment: Broth microdilution MIC against A.baumannii (Ab); format: cell-based; details: Acinetobacter baumannii
Protocol: as §1, §2, §3

E.faecalis (Ef) = experiment: Broth microdilution MIC against E.faecalis (Ef); format: cell-based; details: Enterococcus faecalis
Protocol: as §1, §2, §3

[1] = system: E.coli S30 extract (bacterial protein synthesis); experiment: E.coli S30 extract: inhibition of bacterial protein synthesis (luciferase); format: biochemical; details: 37° C. for 1 hour
Protocol: E.coli S30 extract: Inhibition of bacterial protein synthesis was determined using the E.coli S30 Extract System for Circular DNA (Promega catalog #L-2010) and Luciferase Assay Reagent (Promega catalog #E1500) with slight modifications to a published protocol. Fyfe, C., Sutcliffe, J.A. and Grossman, T.H. (2012) “Development and characterization of a Pseudomonas aeruginosa in vitro coupled transcription-translation assay system for evaluation of translation inhibitors” J. Microbiol. Methods 90(3), 256-261.
Compounds were serial diluted in 0.5 mL microcentrifuge tubes by mixing and transferring 50 µL from the highest concentration to 50 µL of water, mixing and transferring 50 µL of this 2-fold dilution to 50 µL of water. This mixing and transferring was repeated so that there are a total of 8 tubes with serial dilutions of compound at 10× the desired screening concentration that are ultimately diluted to 1× by the addition of S30 luciferase synthesis mixture. Serial dilutions of compounds were added (2 µL) to wells in a black round bottom 96-well plate. Water (2 µL) was used as a “no inhibitor” control in 4 wells/plate. No DNA control reaction mixture (20 µL; see below) was used as a control in 4 wells/plate for background luminescence. S30 luciferase synthesis mixture (18 µL; see below) was added to wells with compounds or water mixture and incubated at 37° C. for 1 hour. Reactions were stopped by transferring to 4° C. refrigerator for 5 minutes then 25 µL of luciferase activity mix was added. Luminescence was measured using a BioTek Synergy HTX plate reader. % Inhibition was determined relative to no inhibitor controls.
S30 luciferase synthesis mixture: • 445 µL S30 extract, circular • 712 µL S30 Premix without amino acids • 4.45 µL pBESTluc™ DNA (1 µg/ µL) • 78 µL complete amino acid mixture • 267 µL water
No DNA control: • 20 µL S30 extract, circular • 32 µL S30 Premix without amino acids • 7 µL complete amino acid mixture • 21 µL water

[2] = target: Rabbit Reticulocyte Lysate (eukaryotic protein synthesis); experiment: Rabbit Reticulocyte Lysate: inhibition of eukaryotic protein synthesis (luciferase); format: biochemical; details: 30° C. for 90 minutes, read-out: retic. IC50
Protocol: Inhibition of eukaryotic protein synthesis was determined using the Rabbit Reticulocyte Lysate System, Nuclease-Treated from Promega (catalog #L-4960) with slight modifications to the manufacturer’s protocol. Compounds were serial diluted in 0.5 mL microcentrifuge tubes by mixing and transferring 50 µL from the highest concentration to 50 µL of water, mixing and transferring 50 µL of this 2-fold dilution to 50 µL of water. This mixing and transferring was repeated so that there are a total of 8 tubes with serial dilutions of compound at 10× the desired screening concentration that are ultimately diluted to 1× by the addition of rabbit reticulocyte luciferase synthesis mixture. Serial dilutions of compounds were added (2.5 µL) to wells in a black round bottom 96-well plate. Water (2.5 µL) was used as a “no inhibitor” control in 4 wells/plate. No RNA control reaction mixture (2 µL; see below) was used as a control in 4 wells/plate for background luminescence. Rabbit reticulocyte luciferase synthesis mixture (22.5 µL; see below) was added to wells with compounds or water mixture and incubated at 30° C. for 90 minutes. Luciferase assay reagent (25 µL) was added with luminescence measured using a BioTek Synergy HTX plate reader. % Inhibition was determined relative to no inhibitor controls.
Rabbit reticulocyte luciferase synthesis mixture: • 1,000 µL rabbit reticulocyte lysate • 5.7 µL Luciferase Control RNA (1 µg/ µL) • 26 µL complete amino acid mixture • 395 µL water
No RNA Control • 70 µL rabbit reticulocyte lysate • 2 µL complete amino acid mixture • 28 µL water

[3] = CAMHB supplemented with sodium bicarbonate 6.25 mM, read-out: Sa + bicarb 6.25 (MIC)
[4] = CAMHB supplemented with sodium bicarbonate 6.25 mM, read-out: E. coli + bicarb 6.25 (MIC)
[5] = CAMHB supplemented with sodium bicarbonate 6.25 mM, read-out: Pa +bicarb 6.25 (MIC)
[6] = CAMHB supplemented with sodium bicarbonate 6.25 mM, read-out: Ab +bicarb 6.25 (MIC)
[7] = CAMHB supplemented with sodium bicarbonate 6.25 mM, read-out: Ef +bicarb 6.25 (MIC)
[8] = CAMHB supplemented with sodium bicarbonate 25 mM, read-out: Sa + bicarb 25 (MIC)
[9] = CAMHB supplemented with sodium bicarbonate 25 mM, read-out: E.coli + bicarb 25 (MIC)
[10] = CAMHB supplemented with sodium bicarbonate 25 mM, read-out: Pa +bicarb 25 (MIC)
[11] = CAMHB supplemented with sodium bicarbonate 25 mM, read-out: Ab +bicarb 25 (MIC)
[12] = CAMHB supplemented with sodium bicarbonate 25 mM, read-out: Ef +bicarb 25 (MIC)

SMILES	MIC (S.aureus (Sa); [3]) [µg/mL]	MIC (E.coli (Ec); [4]) [µg/mL]	MIC (P.aeruginosa (Pa); [5]) [µg/mL]	MIC (A.baumannii (Ab); [6]) [µg/mL]	MIC (E.faecalis (Ef); [7]) [µg/mL]	IC50 [1] [nM]	IC50 [2] [nM]	MIC (S.aureus (Sa); [8]) [µg/mL]	MIC (E.coli (Ec); [9]) [µg/mL]	MIC (P.aeruginosa (Pa); [10]) [µg/mL]	MIC (A.baumannii (Ab); [11]) [µg/mL]	MIC (E.faecalis (Ef); [12]) [µg/mL]	MIC (S.aureus (Sa); read-out: Sa + bicarb 6.25 (MIC)) [µg/mL]	MIC (E.coli (Ec); read-out: E. coli + bicarb 6.25 (MIC)) [µg/mL]	MIC (P.aeruginosa (Pa); read-out: Pa +bicarb 6.25 (MIC)) [µg/mL]	MIC (A.baumannii (Ab); read-out: Ab +bicarb 6.25 (MIC)) [µg/mL]	MIC (E.faecalis (Ef); read-out: Ef +bicarb 6.25 (MIC)) [µg/mL]
CC(C)(N)C(=O)N1CCN(C(=O)Nc2ccn(-c3ccc4c(c3)CC(N[C@H]3CC[C@H](N)C3)C4)c(=O)n2)CC1 (some centres unmarked) [Compound 36, Hydrochloride Salt]	8 to 32	< 8	> 32	> 32	> 32	< 500	< 500	–	–	–	–	–	–	–	–	–	–
CCN(C1CCc2cc(-n3ccc(NC(=O)N4CCN(C(=O)C(C)(C)N)CC4)nc3=O)ccc2C1)[C@H]1CC[C@H](N)C1 (some centres unmarked) [Compound 20]	–	–	–	–	–	< 500	≥ 1000	< 8	< 8	8 to 32 (≈ 14.2 to 56.7 µM)	8 to 32 (≈ 14.2 to 56.7 µM)	< 8	–	–	–	–	–
CN(C1CCc2cc(-n3ccc(NC(=O)N4CCN(C(=O)C(C)(C)N)CC4)nc3=O)ccc2C1)[C@H]1CC[C@H](N)C1 (some centres unmarked) [Compound 19, Hydrochloride Salt]	–	–	–	–	–	< 500	≥ 1000	< 8	< 8	8 to 32	8 to 32	< 8	–	–	–	–	–
CN(C1CCc2cc(-n3ccc(NC(=O)N4CCN(C(=O)C(C)(C)N)CC4)nc3=O)ccc2C1)[C@H]1CC[C@H](N)CC1 (some centres unmarked) [Compound 15, 4-(2-amino-2-methylpropanoyl)-N-(1-(6-(((1r,4r)-4-aminocyclohexyl)(methyl)amino)-5,6,7,8-tetrahydronaphthalen-2-yl)-2-oxo-1,2-dihydropyrimidin-4-yl)piperazine-1-carboxamide hydrochloride salt]	–	–	–	–	–	< 500	≥ 1000	< 8	< 8	8 to 32	8 to 32	< 8	–	–	–	–	–
CC(C)(N)C(=O)N1CCN(C(=O)Nc2ccn(-c3ccc4c(c3)CCC(N3CCCC(N)CC3)C4)c(=O)n2)CC1 (centres unmarked) [Compound 43]	< 8	< 8	> 32	> 32	> 32	< 500	≥ 1000	< 8	< 8	8 to 32 (≈ 14.5 to 58.1 µM)	8 to 32 (≈ 14.5 to 58.1 µM)	< 8	–	–	–	–	–
COC(=O)N[C@H]1CC[C@H](NC2CCc3cc(-n4ccc(NC(=O)N5CCN(C(=O)C(C)(C)N)CC5)nc4=O)ccc3C2)C1 (stereo partly drawn) [Compound 45, Methyl ((1S,3S)-3-((6-(4-(4-(2-amino-2-methylpropanoyl)piperazine-1-carboxamido)-2-oxopyrimidin-1(2H)-yl)-1,2,3,4-tetrahydronaphthalen-2-yl)amino)cyclopentyl)Carbamate Hydrochloride Salt]	–	–	–	–	–	≥ 1000	≥ 1000	–	–	–	–	–	> 32	> 32	> 32	> 32	> 32

From patent US20230278987A1, “Antimicrobial Compounds and Methods” (Curza Global, LLC, priority 2019, published 2023)
